The values below come from article PMC3502156, “Anti-plasmodial action of de novo-designed, cationic, lysine-branched, amphipathic, helical peptides” (Malaria Journal, 2012).

Series [1] has as its system P. falciparum 3D7 (chloroquine-sensitive). The series is described as follows: microbe, parasite or virus in culture. Format: cell-based, Plasmodium falciparum. As to the method: (§1) Chloroquine-sensitive (3D7) and CQ-resistant (Dd2 and INDO) strains of P. falciparum were maintained in continuous culture according to the method of Trager and Jensen with minor modifications. Cultures were maintained in fresh group O^+ve human erythrocytes suspended at 4% haematocrit in complete medium {16.2 g/L RPMI 1640 containing 25 mM HEPES, 11.11 mM glucose (Gibco), 0.2% sodium bicarbonate (Sigma), 0.5% Albumax I (Gibco), 45 μg/litre hypoxanthine (Sigma) and 50 μg/litre gentamicin (Gibco)} and incubated at 37°C under a gas mixture 5% O2, 5% CO2, and 90% N2. Every day, the spent medium was replaced by fresh complete medium to propagate the culture. […] Parasitaemia was monitored by microscopic examination of Giemsa-stained blood smears. Synchronized ring stage parasite was obtained by 5% sorbitol treatment. Trophozoites and schizont-stage parasites were enriched by using Percoll gradient.
(§2) Stock solutions of peptides and CQ were prepared in water (milli-Q grade) while artemisinin stock solution was in dimethyl sulphoxide (DMSO). All stocks were then diluted with culture medium to achieve the required drug concentrations. The concentration of peptide solution in water was based on A280 [ϵ (M^-1 cm^-1) ΔF (didehydrophenylalanine) 19,000, W (Tryptophan) 5,000)]. Thus ϵ280 were 62,000, 124,000, 124,000 and 248,000 for ΔFm, (ΔFm)2, ΔFd and ΔFq respectively. The concentration of FITC-peptides was based on A495 [ϵ(M^-1 cm^-1) FITC 77,000 for (ΔFm)2 with one FITC and 154,000 for ΔFd with two FITC per molecule]. Drugs and peptides solutions were placed in 96-well flat bottom tissue culture grade plates (Corning).
(§3) For drug screening, SYBR green I based fluorescence assay was used as described previously by Smilkstein et al.[30]. Sorbitol synchronized ring stage parasites (haematocrit: 2%, parasitaemia: 1%, 100 μl) under normal culture conditions were incubated in the absence or presence of increasing concentrations of peptides in water. CQ and artemisinin were used as positive controls. […] After 48 hr of incubation 100 μl of SYBR Green I buffer [0.2 μl of 10,000 X SYBR Green I (Invitrogen) per ml of lysis buffer {Tris (20 mM; pH 7.5), EDTA (5 mM), saponin (0.008%; wt/vol), and Triton X-100 (0.08%; vol/vol)}] was added to each well, mixed twice gently with multi-channel pipette and incubated in dark at 37 °C for 1 h. Fluorescence was measured with a Victor fluorescence multi-well plate reader (Perkin Elmer) with excitation and emission wavelength centred at 485 and 530 nm, respectively. Fluorescence counts for CQ (0.1 μM for 3D7, 1 μM for INDO) were subtracted from counts in each well. The fluorescence counts were plotted against the drug concentration and IC50 (the 50% inhibitory concentration) was determined by analysis of dose–response curves. Results of the above mentioned fluorescence-based assay were validated microscopically by examination of Giemsa-stained smears of peptide-treated parasite cultures. Statistical significance of relative potencies of peptides was determined by student’s T test.

Series [2] concerns P. falciparum Dd2 (CQ-resistant). The series can be described thus: microbe, parasite or virus in culture. Type of series: cell-based, Plasmodium falciparum. Particulars: for Resistance index IC50 Dd2/ IC50 3D7: IC50 CQ resistant strain/ IC50 CQ sensitive strain. As to the method: as §1, §2, §3
The test system of series [3] is P. falciparum INDO (CQ-resistant). The series can be described thus: microbe, parasite or virus in culture. Format: cell-based. Particulars: Plasmodium falciparum; ring stage synchronized, 48 hr, SYBR Green I fluorescence, medium with 10% human serum; ± SD of three independent observations. As to the method: as §1, with “Synchronized ring stage parasite was obtained by 5% sorbitol treatment. Trophozoites and schizont-stage parasites were enriched by using Percoll gradient.” left out
For drug screening, SYBR green I based fluorescence assay was used as described previously by Smilkstein et al.[30]. […] Fluorescence was measured with a Victor fluorescence multi-well plate reader (Perkin Elmer) with excitation and emission wavelength centred at 485 and 530 nm, respectively. Fluorescence counts for CQ (0.1 μM for 3D7, 1 μM for INDO) were subtracted from counts in each well. […] Results of the above mentioned fluorescence-based assay were validated microscopically by examination of Giemsa-stained smears of peptide-treated parasite cultures. Statistical significance of relative potencies of peptides was determined by student’s T test.

Series [4] relates to uninfected erythrocytes (URBC). The series is described as follows: Haemolysis assay, uninfected red cells. Type of series: cell-based, human. Particulars: 3 h. As to the method: (§4) Selectivity of haemolysis by peptides for infected erythrocytes (PRBC) vs uninfected erythrocytes (URBC) was examined by incubating the test molecules with URBCs and PRBCs respectively in phosphate-buffered saline (PBS). Briefly, fresh RBCs were spin washed (1600 RPM; 5 min) three times in PBS and re-suspended in PBS at 2% haematocrit. A 100 μl suspension was added to 96-well plate containing the peptides at different concentrations. […] After incubation at 37°C for 3 hr, the samples were centrifuged and supernatant was used to determine the haemolytic activity measured in terms of haemoglobin release as monitored by […]. Triton-treated control samples were diluted 10-fold before reading absorbance. […] Percent haemolysis has been expressed with reference to 100% haemolysis value assigned to positive control (triton X 100 treated RBCs). To study haemolytic susceptibility of parasitized cells, URBCs were replaced with varying percentages (10% and 20%) of mixed stage parasitized cells. […] Haemolysis of parasitized erythrocytes was also monitored microscopically by examining the Giemsa-stained smears. Parasitaemia of ΔFd treated and untreated cultures were microscopically counted for ring, trophozoite and schizont stages respectively. Susceptibility of different stages was compared with corresponding untreated control cultures.

For series [5], the system named is infected erythrocytes (PRBC). The series can be described thus: Haemolysis assay, parasitized red cells. Format: cell-based, Plasmodium falciparum. As to conditions: 3 h. As to the method: as §4
The subject of series [6] is HeLa cells. Type of series: cell-based. As to conditions: 48 h. As to the method:
The cytotoxic effects of ΔFd on mammalian cells was assessed by functional assay as described using HeLa cells cultured in RPMI containing 10% fetal bovine serum, 0.21% sodium bicarbonate (Sigma) and 50 μg/mL gentamycin (complete medium). Briefly, cells (10^4 cells/200 μl/well) were seeded into 96-well flat-bottom tissue culture plates in complete medium. […] DMSO (as positive inhibitor) was added at 10%. Twenty microlitres of a stock solution of MTT (5 mg/mL in 1X phosphate buffered saline) was added to each well, gently mixed and incubated for another 4 hr. After spinning the plate at 1500 rpm for 5 min, supernatant was removed and 100 μl of DMSO (stop agent) was added. Formation of formazon was read on a microtiter plate reader (Versa max tunable multi-well plate reader) at 570 nm. The 50% cytotoxic concentration (TC50) of drug was determined by analysis of dose–response curves.

Series [7] concerns P. falciparum 3D7 trophozoites. The series can be described thus: Immunofluorescence staining of MSP3 in ΔFd treated trophozoite cultures. Format: cell-based, Plasmodium falciparum. Particulars: ΔFd 2.5 μM, 37°C, 6 hr; three independent observations. As to the method:
Immunohistochemical Fluorescence staining of MSP3 in ∆Fd treated Trophozoite and Schizont cultures.
To probe mechanistic details of ∆Fd-mediated, premature parasite egress, P. falciparum 3D7 culture (2%
parasitaemia, 2% haematocrit) was incubated without (control) or with ∆Fd (2.5 µM) at 37°C for 6 hr in a final
volume of 100 µl made with RPMI (96 µl RPMI + 4 µl peptide solution). Smears were processed as follows: (a)
flooded with 2% BSA/PBS (1 hr, 37°C), (b) PBS washed and (c) flooded (1 hr, 370C) with polyclonal anti-MSP3
antibody produced in mouse (1: 100 dilution in 1% BSA/PBS), (d) PBS washed and (e) flooded with alexa fluor 488
labelled anti-mouse antibody (Sigma) (1: 500 dilution in 1% BSA/PBS, 1 hr, 370C in dark), (e) PBS washed and (f)
flooded with DAPI (4, 6-diamidino-2-phenylindole) (invitrogen) (500 ng/ml, 10 min, 370 C). After a final PBS wash
the smears were observed under Nikon eclipse fluorescence microscope using appropriate filters.

In series [8] the test system is P. falciparum 3D7 (chloroquine-sensitive). The series can be described thus: microbe, parasite or virus in culture. Format: cell-based, Plasmodium falciparum. The source holds these as a separate data set.
Series [9] relates to proteases. As to conditions: branched dimer compared with linear dimer (ΔFm)2; cited from earlier work. The source says: Some important features of these peptides as drugs against malaria include their favourable resistance indices (Table 1) that allow them to rapidly kill both drug-sensitive and drug-resistant strains of malaria parasite with equal potencies, their amphipathic nature that gives them drug-like character, and their ability to permeabilize and penetrate biological membranes, which allows them to attack target cells both from the surface as well as intracellularly. In addition, the presence of the conformationally constrained, non-protein, amino acid didehydrophenylalanine in both ΔFd and (ΔFm)2 pr ...

For orientation: IC50 means the concentration needed to halve the response being measured. As a reminder, the IC70 is the point of the concentration-response curve where the effect stands at 70%. A lower IC70 goes with an effect from little substance.

Molecules are shown by their SMILES. Several values for one entry are separate records, joined by “and”; a condition that tells them apart may be missing. Equal values may be shown once. Read-outs that look alike come from different tables or passages of the source. Starred links: 1 amine or outer side, 2 acyl side, 3 side chain; linkers in the order of their positions; H or OH if unused. Positions of bridges follow the written chain, without caps; N, C: chain ends. Non-standard residues stand in square brackets, D forms with d. Residues, ends and D or L forms follow the SMILES beside them. Chains are numbered I, II in the order given. X1 = O=C(/C(=C/c1ccccc1)N[*:1])[*:2] Where only a bound is given, the exact number is not on record here.

Take `C[C@@H]1CC[C@H]2[C@@H](C)C(=O)O[C@@H]3O[C@@]4(C)CC[C@@H]1[C@]32OO4` [Artemisinin, reference compound]: the IC50 in series [1] (Plasmodium falciparum, 3D7, ring stage synchronized, haematocrit 2%, parasitaemia 1%, 48 hr, SYBR Green I fluorescence, ± SD of three independent observations, read-out: IC50 P. falciparum 3D7) worked out at 15 nM; in [2] (Plasmodium falciparum, DD2, ring stage synchronized, haematocrit 2%, parasitaemia 1%, 48 hr, SYBR Green I fluorescence, ± SD of three independent observations, read-out: IC50 P. falciparum Dd2), 16 nM; in [3] it was 15 nM. Besides, the “Resistance index IC50 Dd2/ IC50 3D7” value in series [2] came out at 1.
Compound `CC(=O)NCC(=O)N/C(=C\c1ccccc1)C(=O)N[C@@H](CCCNC(=N)N)C(=O)N[C@@H](CCCCN)C(=O)N/C(=C\c1ccccc1)C(=O)N[C@@H](Cc1c[nH]cn1)C(=O)N[C@@H](CCCCN)C(=O)N/C(=C\c1ccccc1)C(=O)N[C@@H](Cc1c[nH]c2ccccc12)C(=O)N[C@@H](C)C(=O)NCCCC[C@H](NC(=O)[C@H](C)NC(=O)[C@H](Cc1c[nH]c2ccccc12)NC(=O)/C(=C/c1ccccc1)NC(=O)[C@H](CCCCN)NC(=O)[C@H](Cc1c[nH]cn1)NC(=O)/C(=C/c1ccccc1)NC(=O)[C@H](CCCCN)NC(=O)[C@H](CCCNC(=N)N)NC(=O)/C(=C/c1ccccc1)NC(=O)CNC(C)=O)C(N)=O` [ΔFd] (I: Ac-G[X1]RK[X1]HK[X1]WAK-NH2 / II: Ac-G[X1]RK[X1]HK[X1]WA; amide I:11-II:C; N-terminus and C-terminus assumed) displayed an IC50 in series [1] (3D7 (chloroquine-sensitive, 48 h)) of 1390 ± 100 nM. The IC50 in [2] (Dd2 (CQ-resistant, 48 h)) worked out at 1600 ± 90 nM. For the same compound, the “Resistance index IC50 Dd2/ IC50 3D7” value in series [2] is 1.1 and ~ 1. Further, in [4], the “HC50 URBC” value is greater than 50 µM and the “Hemolytic Selectivity index (HC50 URBC/ IC50 Pf 3D7)” value is listed as greater than 35. In series [5], the “percentage haemolysis, mixed culture 10% parasitaemia” value worked out at 7% and the “percentage haemolysis, mixed culture 20% parasitaemia” value is listed as 16%. Moreover, in [6], the “TC50 HeLa cells” value is greater than 25000 nM. Moreover, the “anomalously egressed trophozoites with MSP3 staining” value in [7] is ~ 40%. For the same compound, the “increment in potency at 96 hr (two cycles) vs 48 hr (one cycle)” value in series [8] (P. falciparum 3D7, SYBR Green assay) was determined as 1.1 fold. The compound further came in with a 70% effect concentration (IC70) in [8] (P. falciparum 3D7, dose used on trophozoite and schizont cultures) of 2500 nM. In addition, the stability against proteases entry in [9] is recorded as “more stable against proteases”.
